Measurements reported in patent publication US20090311344A1, “Dosing Regimen” (priority 2008, published 2009).

Columns and labels:
[1] = tested on: platelets, reticulocytes, hematocrit; assay: CBC analysis and reticulocyte counts in HT-29 tumor-bearing mice (Groups 6-9); format: in vivo, athymic nude mice; details: for mean reticulocyte values: Group 7
Procedure: Five groups (n=10) of female athymic nude mice (Harlan) bearing established (˜100 mm^3) HT-29 human colon carcinomas on Day 1. Groups 6-9 (n=20) were included for blood sampling and received the same treatment as Groups 1-4, respectively. Treatment effects on the growth of tumors were evaluated by tumor growth delay (TGD), which is the difference between median time to endpoint (TTE) tumor size in a treatment group compared to a control group. […]
(§1) Group 1 mice (n=10) were untreated tumor growth controls. Group 2 mice (n=10) received 60 mg/kg carboplatin administered intraperitoneally (i.p.) on Days 1, 2, 12, and 13. Group 3 mice (n=10) received 0.2 mg/kg of the TPO mimetic peptide compound administered intravenously (i.v.) via tail vein on Days 2 and 13. Groups 4 and 5 received the combination of carboplatin (60 mg/kg i.p. on Days 1, 2, 12, and 13) and 0.2 mg/kg of the TPO mimetic peptide compound on Days 2, 13 and Days 2, 13, 23, respectively, administered intravenously (i.v.) one hour after carboplatin dosing. Groups 6-9 (n=20 each) were included for blood sampling and received the same treatments as Groups 1-4, respectively. For all groups, each dose of drug was given in a volume of 0.2 mL per 20 g of body weight (10 mL/kg), and was scaled to the body weight of each animal.
[…] Blood was collected into EDTA tubes, and complete blood counts (CBC) with differential were determined using a Cell-Dyn® 3700 System (Abbott Diagnostics) for automated hematology analyses. Reticulocyte values were determined. In addition, for Groups 1-5, five animals per group were euthanized at or just after endpoint by terminal cardiac puncture under CO2 anesthesia, and gross necropsies were performed. Blood samples were collected into EDTA tubes, and CBC with differential and reticulocyte values were performed as previously described. All other animals in Groups 1-5 were euthanized at endpoint without sampling.

[2] = tested on: HT-29 human colon carcinoma xenografts; assay: HT-29 human colon carcinoma xenografts in athymic nude mice: tumor growth delay; format: in vivo
From the text: Administration of the TPO Mimetic Peptide Compound One Hour After Administration of Carboplatin. Effect on activity and toxicity of carboplatin against HT-29 human colon carcinoma xenografts established in athymic nude mice.
Five groups (n=10) of female athymic nude mice (Harlan) bearing established (˜100 mm^3) HT-29 human colon carcinomas on Day 1. Groups 6-9 (n=20) were included for blood sampling and received the same treatment as Groups 1-4, respectively. Treatment effects on the growth of tumors were evaluated by tumor growth delay (TGD), which is the difference between median time to endpoint (TTE) tumor size in a treatment group compared to a control group. The effect of these treatments on platelet and erythrocyte precursors was determined from CBC analysis and reticulocyte counts of blood samples taken on Days 10, 13, 21 and 24.
Xenografts were initiated from HT-29 human colon carcinoma xenografts maintained in athymic nude mice. HT-29 tumor fragments (1 mm^3) were implanted subcutaneously into the right flank of each test mouse, and tumor growth was monitored. On Day 1 of the study, the animals were pair-matched into five groups (Groups 1-5) for evaluation of efficacy and four groups for sampling (Groups 6-9). Groups 1-5 each consisted of ten animals with tumor sizes ranging from 75-126 mm^3 and group mean tumor sizes of 99 mm^3. Groups 6-9 each consisted of twenty animals with tumor sizes ranging from 40-221 mm^3 and group mean tumor sizes of 84 mm^3. Tumor weight was estimated with the assumption that 1 mg is equivalent to 1 mm^3 of tumor volume. Volume was calculated using the formula:
as §1
Tumors were measured twice each week using calipers. Each animal was euthanized when its tumor reached the predetermined endpoint size of 1000 mm^3, or on the final day of the study (Day 62), whichever came first. The time to endpoint (TTE) for each mouse was calculated from the following equation: […]
where b is the intercept and m is the slope of the line obtained by linear regression of a log-transformed tumor growth data set. The data set was comprised of the first observation that exceeded the study endpoint volume and the three consecutive observations that immediately preceded the attainment of the endpoint volume.
Treatment outcome was determined from tumor growth delay (TGD), which is defined as the increase in the median time to endpoint (TTE) in a treatment group compared to the control group:
where: • T=median TTE for a treatment group, • C=median TTE for the control group (Group 1)
Treatment may cause partial regression (PR) or complete regression (CR) of the tumor in an animal. In a PR response, the tumor volume is 50% or less of its Day 1 volume for three consecutive measurements during the course of the study, and equal to or greater than 13.5 mm^3 for one or more of these three measurements. In a CR response, the tumor volume is less than 13.5 mm^3 for three consecutive measurements during the course of the study. An animal with a CR response at the termination of a study is additionally classified as a long-term tumor-free survivor (LTTFS). […]

N.N.O=C([O-])C1(C(=O)[O-])CCC1.[Pt+2] [carboplatin, Carboplatin, reference compound]
mean HCT values of Group 7 compared to Group 9 ([1]; Days 13, 21, and 23): slightly lower
mean reticulocyte values ([1]; Day 10 (near the expected nadir)): negligible
mean reticulocyte values ([1]; Day 13): higher than in control mice
mean reticulocyte values ([1]; Day 21 after the second cycle of treatment): low
mean hematocrit (HCT) values compared to untreated mice (Group 6) ([1]; Groups 7-9): lower mean HCT values than controls
mean platelet counts compared to untreated Group 6 controls ([1]; Groups 7-9, regimens as Groups 2-4, Days 10, 13, 21, and 23): lower mean platelet counts at all time points
regression responses ([2]; Group 2): No regression responses were recorded
number of 62-day survivors ([2]; Group 2, n=10): 1
tumor volume of the animal remaining in the study on Day 62 ([2]; Group 2, one animal): 600 mm^3
Tumor Burden Median ([2]; Group 2: carboplatin 60 mg/kg i.p. Days 1, 2, 12, 13, (n animals) in brackets): 600(1)
TGD (tumor growth delay) ([2]; Groups 2-4, relative to untreated Group 1, carboplatin 60 mg/kg i.p. Days 1, 2, 12, 13, TPO mimetic peptide compound 0.2 mg/kg i.v. Days 2, 13): 22.8 days
% Tumor Growth Delay ([2]; HT-29 xenografts, athymic nude mice, n=10, carboplatin 60 mg/kg i.p. Days 1, 2, 12, 13, TPO mimetic peptide compound 0.2 mg/kg i.v. Days 2, 13, Groups 2-4, vs untreated Group 1): 92%
Median TTE ([2]; HT-29 xenografts, athymic nude mice, n=10, carboplatin 60 mg/kg i.p. Days 1, 2, 12, 13, TPO mimetic peptide compound 0.2 mg/kg i.v. Days 2, 13, Groups 2-4, endpoint 1000 mm^3): 47.6 days
